“Also recorded” adds a separate entry of the source.

In data set [1] the test system is HUVEC cells and THP-1 cell line. Description: Cell viability assay (MTT assay). Particulars: 10, 20, 40 μM, 72 h, MTT (FIG. 6). The class given is cell-based. How it is done:
The MTT assay is a test used to evaluate the cytotoxicity of compounds.
The cytotoxicity assay was carried out as described by Mosmann (Mosmann 1983). HUVEC cells and THP-1 cell line (1×10^4 cell/well) were seeded in 96-well plate and incubated CO2 incubator chamber at 37° C. for 24 h. Cells were treated with serial dilutions of lipophenolic derivative of resveratrol at a final concentration of 10, 20, 40 and 80 μM, and plate was incubated for 72 hours. Supernatant was discarded and MTT-serum-free medium was added to each plate and incubated for three additional hours. The formed formazan blue crystals were further dissolved by addition of 100 μL of 10% SDS in 0.1 N HCl to each plate for 2 hours. The optical density was measured at 570 nm (reference filter 690 nm) using a TECAN™ plate reader. Lethal Concentration 50% (LC50) was calculated using GraphPad Prism v.5 software.
(Tetrazolium dyes change colour on reduction, which living cells bring about.)

Data set [2] has as its target T1, MMP-9 (Homo sapiens, UniProt P14780).
T1 construct: endogenous in cells
Description: MMP-9 activity in TNF-alpha activated THP-1 cell line (gelatin zymography). The format is cell-based. Particulars: for inhibition of MMP-9 activity: 30 μM, 24 h, THP-1 activated with 10 ng/mL TNF-α, zymogram (FIG. 3); for dose-response effect on the inhibitory activity of MMP9: zymogram and curve (FIG. 4). How it is done: THP-1 cells (human monocytic THP-1 cell line) were cultured in 10% heated inactivated FBS RPMI 1640 medium supplemented with penicillin G 100 units/mL and streptomycin 100 μg/mL purchased from Fisher Scientific™ (Illkirch-Graffenstaden, France).
THP-1 cells were seeded (3×10^5 cell/well) in 24-well plate with 10 ng/mL TNF-α with or without 30 μM of resveratrol derivatives dissolved in DMSO. After 24 hours incubation at 37° C., supernatant was collected and tested on zymography.
Low-serum (1%) RPMI-1640 medium was used for the assessment of MMP-9 activity on TNF-alpha activated THP-1 cell line 3×10^6 cell/mL. Firstly, resveratrol and its derived lipophenolic compounds were dissolve in DMSO, and incubated at a final concentration of 30 μM with 10 ng/mL TNF-alpha treated THP-1 in CO2 incubator chamber for 24 hours at 37° C. After incubation, cell suspension was centrifuged at 1200 r.p.m for five minutes, supernatant was recovered and stored at −80° C. for zymogram analysis.
The anti MMP-9 activity was assessed using gelatin zymography. In brief, the collected supernatants were loaded on 10% SDS-polyacrylamide gel electrophoresis (PAGE) supplemented with 1% gelatin without reducing agents. After separation, gels were washed three times with 2.5% Triton X-100 and incubated with gelatinase buffer (NaCl 200 mM, Tris Base 50 mM, CaCl2) 5 mM and ZnCl2 0.25 mM; pH 7.5), for 24 hr at 37° C. on an orbital shaker at 100 r.p.m/min. Gels were further stained for one hour with Commassie Blue-staining solution (0.025% Commassie Blue, 40% methanol and 10% acetic acid) followed by destaining with 20% methanol and 10% glacial acetic acid solution until the clear bands appearance. Gels were photographed and analyzed by GelAnalyzer 2010a™ software.

The subject of data set [3] is MMP-9. Particulars: Cheng et al. 2009, Gao et al. 2014; cited from earlier work.
For data set [4] the following is noted: in vivo; Walle 2011, Chang et al. 2016; cited from earlier work.
In data set [5] the test system is TNF-α release by LPS-activated BV-2 microglia. Description: TNF-α release by LPS-activated BV-2 microglia (AlphaLISA). The class given is cell-based, murine. Particulars: 30 μM, 24 h after LPS, BV2 cells, mean±SEM (FIG. 7). How it is done: BV-2 cells that are derived from raf/myc-immortalised murine neonatal microglia are the most frequently used substitute for primary microglia (Blasi et al., 1990).
BV-2 cells were maintained in 75 cm2 culture flasks in Dulbecco's Modified Eagle's Medium (DMEM, Sigma) supplemented with 10% fetal bovine serum (FBS, Sigma) and 1% Penicillin-Streptomycin solution (Sigma), and cultured at 37° C. in a humidified atmosphere of 5% CO2.
BV-2 cells were plated on 24-well plates at a density of 10^5 cells per well. On the following day cells were subjected to different treatments. To study the effect of Resv-LA on TNF-alpha production by LPS activated BV-2 cells, the cells were incubated in medium containing 1 mg/ml LPS (Sigma-Aldrich) for 24 h, with or without Resv-LA (REV-LA) 30 μM.
Supernatants from untreated and treated cells were centrifuged at 5000 rpm for 5 minutes and assayed for their TNF-α contents using the TNF-α (mouse) AlphaLISA Detection Kit of Perkin-Elmer. TNF-α released was normalized by cell number and expressed as percentage of the maximal released obtained in the LPS-stimulated condition.
Data are expressed as mean±SEM. Statistical analysis of differences between groups was performed by using unpaired t-test/Mann-Whitney. […]
(In Alpha technology, singlet oxygen from a donor bead excites a nearby acceptor bead.)

In data set [6] the test system is HUVEC monolayer. Description: In vitro vascular permeability assay (FITC-dextran endothelial permeability assay). The format is cell-based, human. Particulars: 10 μM, 100 ng/mL TNF-α, 24 h (FIG. 5). On the procedure: Human umbilical vascular endothelial cells (HUVECs) were cultured in low serum (1%) EndoGro™ medium kit purchased from Merck Millipore™ (Paris, France). TNF-α was purchased from PeproTech™ (Neuilly-Sur-Seine, France). The permeability of HUVEC monolayer seeded on collagen coated semi-permeable inserts was examined using in vitro vascular permeability assay kit, Millipore™ (Paris, France) according to the manufacturer protocol. Endothelial cells are seeded into the inserts and cultured until complete monolayer formation occurs. After forming confluent monolayer by seeding HUVECs (4×10^5 cells/insert) for 48 hours, medium was replaced with 100 ng/mL TNF-α in medium with and without MMP-9 inhibitors at 10 μM and incubated for 24 hours in CO2 chamber at 37° C. Lipophenolic derivatives of resveratrol were dissolved in DMSO, and SB-3CT (gelatinase inhibitor) was dissolved in DMSO. At the end of the permeability treatment, 150 μl FITC-dextran in media solution were incubated for 20 minutes at room temperature protected from light. FITC-dextran permeates the treated cell monolayer into the plate well. Permeation was stopped by removing the inserts and 100 μl were withdrawn from the receiving tray and added to 96-well opaque plate for fluorescence measurement. The resulting fluorescence in the plate well is measured and used as an indicator of the extent of monolayer permeability. […]

T1 sequence (P14780 94-707): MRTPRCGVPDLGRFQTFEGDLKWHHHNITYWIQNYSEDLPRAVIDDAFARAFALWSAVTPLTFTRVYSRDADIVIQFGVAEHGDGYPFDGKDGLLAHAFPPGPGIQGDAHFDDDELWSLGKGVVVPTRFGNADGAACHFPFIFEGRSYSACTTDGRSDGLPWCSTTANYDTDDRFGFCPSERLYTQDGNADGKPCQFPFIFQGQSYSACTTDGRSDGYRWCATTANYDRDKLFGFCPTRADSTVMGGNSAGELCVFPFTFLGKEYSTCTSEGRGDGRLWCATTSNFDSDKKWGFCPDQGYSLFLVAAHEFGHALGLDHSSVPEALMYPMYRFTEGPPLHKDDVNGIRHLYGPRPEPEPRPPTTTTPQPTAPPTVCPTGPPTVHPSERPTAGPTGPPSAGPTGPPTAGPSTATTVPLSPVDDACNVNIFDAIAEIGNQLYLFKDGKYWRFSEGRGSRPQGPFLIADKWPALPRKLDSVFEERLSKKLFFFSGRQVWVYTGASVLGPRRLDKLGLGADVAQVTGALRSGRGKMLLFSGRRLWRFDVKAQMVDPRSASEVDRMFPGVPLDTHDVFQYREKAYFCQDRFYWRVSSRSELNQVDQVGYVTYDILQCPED

`CCCCCCCCCCCCCCCCCCCCCC(=O)Oc1ccc(/C=C/c2cc(O)cc(O)c2)cc1` [Resv-C22, (E)-4-(3,5-dihydroxystyryl)phenyl docosanoate]: in data set [1], the “cytotoxic effect on viability” value is reported as “does not have cytotoxic effect”. For the same compound, in data set [2], the “inhibition of MMP-9 activity” value is listed as “demonstrated inhibition of MMP9-activity” and the “dose-response effect on the inhibitory activity of MMP9” value was “dose-response effect”.
As for `CC/C=C\C/C=C\C/C=C\C/C=C\C/C=C\C/C=C\CCC(=O)Oc1ccc(/C=C/c2cc(O)cc(O)c2)cc1` [4′-Resv-DHA, (4,7,10,13,16,19 Z)-4-((E)-3,5-dihydroxyphenylstyryl)phenyl docosa-4,7,10,13,16,19-hexaenoate], the “inhibition of MMP-9 activity” value in data set [2] was “reduced MMP-9 activity”.
Consider `Oc1ccc(C=Cc2cc(O)cc(O)c2)cc1` [Resveratrol], for which, in data set [3], the “inhibition of the activity of MMP-9 (reported)” value was “inhibit the activity of MMP-9”. Moreover, the bioavailability result in data set [4] was “poor bioavailability”.
As to `CC/C=C\C/C=C\C/C=C\C/C=C\C/C=C\C/C=C\CCC(=O)Oc1cc(O)cc(/C=C/c2ccc(O)cc2)c1` [Compound 3-Resv-DHA, (4,7,10,13,16,19Z)-3-hydroxy-5-((E)-4-hydroxystyryl)phenyl docosa-4,7,10,13,16,19-hexaenoate], the “inhibition of MMP-9 activity” value in data set [2] is on record as “did not show any inhibitory activity; also recorded: not active”.
As for `CCCCC/C=C\C/C=C\CCCCCCCC(=O)Oc1ccc(/C=C/c2cc(O)cc(O)c2)cc1` [Resv-LA, (9,12Z)-4-((E)-3,5-dihydroxystyryl)phenyl octadeca-9,12-dienoate], in data set [1], the “cytotoxic effect on viability” value was “does not have cytotoxic effect”. In addition, in data set [5], the “TNF-α released, as percentage of the maximal released obtained in the LPS-stimulated condition” value came out at 66.1±4.2 percentage. Besides, the “inhibition of TNF-alpha-enhanced permeability of the HUVEC monolayer” value in data set [6] is “demonstrated inhibition”. Moreover, in data set [2], the “inhibition of MMP-9 activity” value was “best activity; also recorded: demonstrated inhibition of MMP9-activity” and the “dose-response effect on the inhibitory activity of MMP9” value is reported as “dose-response effect”.

The values are drawn from patent US11419841B2, “Uses of lipophenolic compounds” (Universite De Montpellier, priority 2017, dated 2022).
